Results: patent US20150224211A1, “LEUKOCYTES AS DELIVERY CELLS FOR IMAGING AND DISEASE THERAPY” (priority 2012, published 2015)
Entries after “also recorded” stand apart in the source; their conditions may differ.

How the values were obtained:
[1] = test system: Fusobacterium necrophorum subsp. necrophorum strain 8L1; experiment: Efficacy study in mouse model of liver abscesses; format: in vivo, BALB/c mice; settings: 60 μg CHX in 1.3×10^6 neutrophils
Experimental: In an efficacy study that followed, Fusobacterium necrophorum subsp. necrophorum strain 8L1 was grown overnight from a single colony in PRAS-BHI. 0.3 ml of the starter culture was added to 10 ml of fresh PRAS-BHI broth and grown to an O.D.600 of 0.7. 1 ml of this culture was diluted 1:40 to achieve a final concentration of approximately 4·10^6 CFU/ml. 400 μl of the diluted bacteria was injected intraperitonially into 10 week old BALB/c mice.
Ten-week old BALB/c mice were randomly assigned into 6 groups with 9 mice per group. On day zero, all mice were infected intraperitonially with an infectious dose (approximately 1×10^7 CFU) of F. necrophorum. On day 3, mice were injected (via tail vein) with 100 μl PBS (control), unmodified neutrophils, neutrophils carrying microparticles (an average of 20 cells of M. luteus loaded with chlorhexidine), or neutrophils containing unmodified, heat deactivated M. luteus. The animals were monitored for clinical signs for 5 days after treatment and were euthanized if any clinical signs developed. The mice were euthanized 5 days post treatment and all mice were examined post mortem for abscesses in the livers. Livers of the mice were weighed and homogenized in a tissue homogenizer for 1 min in modified lactate (ML) broth. […]

[2] = test system: 4T1 mouse mammary carcinoma cells; experiment: In situ photodynamic therapy (ALA plus luminol) of mouse mammary tumors; format: in vivo; settings: ALA 100 mg/kg IP prior to luminol 250 mg/kg IP; treatment repeated; four days after PDT
Experimental: 1×10^5 4T1 mouse mammary carcinoma cells (ATCC) were transplanted into a mammary fat pad of a mouse. Four, six, eight and ten days after transplant, luminol (Sigma-Aldrich) was administered intrapertioneally (IP)(250 mg/kg) and the mouse was imaged on an IVIS Lumina imaging apparatus. For in situ photodynamic therapy, the sensitizer alpha aminolevulinic acid (ALA), which is a precursor to protoporphyrin IX (a clinically used photosensitizer), was administered IP (100 mg/kg,) prior to luminol administration. […] Adjunct treatments designed to enhance the PDT effect included the administration of the TGF-β inhibitor LY34947 (1 mg/kg, IP), streptokinase (800 units/mouse, IV), or a combination of LY34947 and streptokinase.

Compound	effect against the hepatic disease caused by F. necrophorum [1]	tumor response determined by imaging with luciferin [2]
[H]/N=C(\N/C(=N/[H])NCCCCCCNC(=N)NC(=N)Nc1ccc(Cl)cc1)Nc1ccc(Cl)cc1 [CHX, chlorhexidine gluconate]	effective	
NCC(=O)CCC(=O)O [ALA, 5-aminolevulinic acid]		can attenuate tumors; also recorded: dramatic regression of the tumors
